# Measured values reported in US20240327417A1, “HETEROCYCLIC COMPOUNDS” (BeiGene Switzerland GmbH, priority 2021, published 2024).
# Experiments:
# [1] = target: T1, Full length DGKζ (in-house protein M1-V929) (Homo sapiens, UniProt Q13574); experiment: Biochemical DGK IC50 assay (ADP-Glo, lipid micelle substrate), DGKζ; conditions: 0.5 nM enzyme, 140 μM ATP, 80 μM DAG, 1 hour preincubation, 1 hour reaction, room temperature, read-out: IC50s for DGKζ
# T1 construct: His (N); TEV cleavage site (N); made in house; host or cells: Sf9 insect cells (baculovirus, Bac-to-Bac)
# T1 sequence (Q13574 1-929 isoform Q13574-4): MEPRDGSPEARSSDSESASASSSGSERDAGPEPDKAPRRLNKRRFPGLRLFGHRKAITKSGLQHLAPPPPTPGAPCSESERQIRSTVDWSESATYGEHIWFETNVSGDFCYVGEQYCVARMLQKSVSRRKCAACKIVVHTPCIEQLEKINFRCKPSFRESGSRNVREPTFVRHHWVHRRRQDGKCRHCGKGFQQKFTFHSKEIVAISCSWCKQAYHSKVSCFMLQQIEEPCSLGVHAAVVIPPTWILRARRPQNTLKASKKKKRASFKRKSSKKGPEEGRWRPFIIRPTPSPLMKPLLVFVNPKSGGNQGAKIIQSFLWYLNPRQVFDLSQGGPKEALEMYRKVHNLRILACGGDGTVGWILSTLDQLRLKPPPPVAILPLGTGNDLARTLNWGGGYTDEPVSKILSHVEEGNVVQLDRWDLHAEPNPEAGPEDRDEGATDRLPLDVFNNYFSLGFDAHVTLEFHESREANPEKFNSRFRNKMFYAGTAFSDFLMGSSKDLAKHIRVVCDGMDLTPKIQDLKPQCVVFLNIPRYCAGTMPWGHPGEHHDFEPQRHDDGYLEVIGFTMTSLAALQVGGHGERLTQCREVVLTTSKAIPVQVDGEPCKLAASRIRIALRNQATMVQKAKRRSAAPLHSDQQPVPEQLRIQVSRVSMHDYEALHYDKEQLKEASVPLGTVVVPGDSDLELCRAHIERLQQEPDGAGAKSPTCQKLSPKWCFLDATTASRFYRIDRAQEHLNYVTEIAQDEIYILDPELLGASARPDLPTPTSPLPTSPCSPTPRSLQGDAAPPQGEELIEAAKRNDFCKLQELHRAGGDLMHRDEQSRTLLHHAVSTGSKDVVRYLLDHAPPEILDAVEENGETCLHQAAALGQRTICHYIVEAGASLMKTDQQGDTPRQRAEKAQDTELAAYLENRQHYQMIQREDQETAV
# Experimental: (§1) Enzymatic reactions of DGKζ, DGKα and DGKδ were performed using ADP-Glo assay with lipid micelle substrate. […] Full length DGKα (D21-10BG, SignalChem) and full length DGKδ (D23-10G, SignalChem) were purchased. Lipid micelle was prepared by dissolving DAG (Sigma, 317505-10MG) and PS (Sigma, P7769-100MG) with chloroform which was firtherly removed by rotary evaporation. The obtained residue was resuspended in buffer containing 25 mM HEPES pH 7.0, 0.5 mM EDTA and 160 mM Octyl β-D glucopyranoside by vigorous mixing and ultrasonic (IID, Scientz).
# (§2) The inhibition activities testing for the compound disclosed herein were carried out at room temperature in assay buffer containing 50 mM HEPES, 10 mM MgCl2, 0.01% BSA, 0.1 mM Na3VO4, 0.005% Tween-20 and 0.01 mM CaCl2. Compounds in DMSO were dispensed into wells of a black 384 well plate (Corning 4514) using D300e digital dispenser (Tecan). The ranges of compounds final concentration were 1.55˜10000 nM or 23.3˜150000 nM. 3 μL 2× enzyme solution was added to wells. […] After 1 hour reaction, 5 μL ADP-Glo reagent (Promga V9101) was added and incubated for 40 minutes. 10 μL Kinase Detection reagent was added and incubated for 30 minutes. Luminescence was measured on a microplate reader (PHERAstar FSX, BMG labtech). The IC50s are calculated based on inhibition of enzyme activity in the presence of increasing concentrations of compounds.
# Human His-TEV-DGK-zeta-pFastBac1 and human baculovirus samples was generated using the Bac-to-Bac baculovirus expression system (Invitrogen) according to the manufacturer's protocol. The DNA used for expression of DGK-zeta, have SEQ ID Nos: 1. Baculovirus amplification was achieved using infected SF9 cells at 1:2000 virus/cells ratios, and grown for 96 hours at 27° C. post-transfected.
# The expression scaled up for each protein was carried out in the […] from CORNING. 4 L of 3×10^6 cells/mL Sf9 cells (Expression System, Invitrogen) grown in SF900™ II SFM insect medium (Expression System) was infected with virus stock at 1:200 virus/cells ratio, and grown for 48 hours at 27° C. post-transfection. The infected cell culture was harvested by centrifugation at 6000 rpm for 15 min 4° C. in a SORVALL LYNX6000 centrifuge. The cell pellets were stored at −80° C.
# Full length human DGKζ produced as described above, was purified from Sf9 baculovirus-infected insect cell paste. The cells were lysed using sonication method, and the lysates were clarified by centrifugation.
# [2] = target: T2, Full length DGKα (D21-10BG, SignalChem) (Homo sapiens, UniProt P23743); experiment: Biochemical DGK IC50 assay (ADP-Glo, lipid micelle substrate), DGKα; conditions: 7.5 nM enzyme, 140 μM ATP, 80 μM DAG, 1 hour preincubation, 1 hour reaction, room temperature, read-out: IC50s for DGKα
# T2 construct: Full length DGKα (D21-10BG, SignalChem); purchased SignalChem D21-10BG
# T2 sequence (P23743 whole entry): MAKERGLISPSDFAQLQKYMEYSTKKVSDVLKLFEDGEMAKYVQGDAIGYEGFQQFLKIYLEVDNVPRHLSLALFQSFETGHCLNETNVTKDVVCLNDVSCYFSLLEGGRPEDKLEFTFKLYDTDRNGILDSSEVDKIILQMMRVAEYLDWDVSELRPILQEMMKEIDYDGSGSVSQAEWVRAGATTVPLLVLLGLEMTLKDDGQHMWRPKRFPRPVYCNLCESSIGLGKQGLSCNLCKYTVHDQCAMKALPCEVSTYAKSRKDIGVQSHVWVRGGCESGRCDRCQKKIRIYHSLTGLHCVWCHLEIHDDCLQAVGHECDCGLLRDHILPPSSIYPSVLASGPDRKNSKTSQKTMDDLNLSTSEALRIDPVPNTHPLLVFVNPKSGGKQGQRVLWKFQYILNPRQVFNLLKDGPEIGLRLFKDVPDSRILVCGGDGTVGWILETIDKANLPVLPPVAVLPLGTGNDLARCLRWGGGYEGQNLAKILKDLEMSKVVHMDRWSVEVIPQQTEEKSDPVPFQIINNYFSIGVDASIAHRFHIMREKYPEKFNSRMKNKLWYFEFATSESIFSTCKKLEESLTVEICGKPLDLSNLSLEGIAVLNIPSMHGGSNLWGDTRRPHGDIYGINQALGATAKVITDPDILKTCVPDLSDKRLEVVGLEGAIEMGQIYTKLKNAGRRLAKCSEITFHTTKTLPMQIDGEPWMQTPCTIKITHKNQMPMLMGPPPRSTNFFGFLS
# Experimental: as §1, §2
Structure (SMILES),IC50 [1] [nM],IC50 [2] [nM]
"CC[C@@H]1CN(c2cc(=O)n(C)n3cc(CC#N)nc23)[C@@H](C)CN1C(C)c1cc2sc(C)nc2cc1F (single isomer, unassigned) [Compound A60a]",189,826
"CC(c1ccc2c(c1)OC(F)(F)O2)N1C[C@H](C)N(c2cc(=O)n(C)n3cc(CC#N)nc23)C[C@H]1C (stereo partly drawn) [Compound A31, 2-(8-((2S,5R)-4-(1-(2,2-difluorobenzo[d][1,3]dioxol-5-yl)ethyl)-2,5-dimethylpiperazin-1-yl)-5-methyl-6-oxo-5,6-dihydroimidazo[1,2-b]pyridazin-2-yl)acetonitrile]",1130,1970
"CC[C@H]1CN(C(C)c2ccc(C3CC3)nc2)[C@H](CC)CN1c1cc(=O)n(C)n2cc(CC#N)nc12 (single isomer, unassigned) [Compound A37b]",538,260
"CC[C@H]1CN(C(C)c2ccc(C(C)(C)O)nc2)[C@H](CC)CN1c1cc(=O)n(C)n2cc(CC#N)nc12 (stereo partly drawn) [Compound A41, 2-(8-((2S,5R)-2,5-diethyl-4-(1-(6-(2-hydroxypropan-2-yl)pyridin-3-yl)ethyl)piperazin-1-yl)-5-methyl-6-oxo-5,6-dihydroimidazo[1,2-b]pyridazin-2-yl)acetonitrile]",844,1270
"Cc1cnc2ccc(C(C)N3C[C@H](C)N(c4c(F)c(=O)n(C)n5cc(CC#N)nc45)C[C@H]3C)cc2n1 (stereo partly drawn) [Compound A22, 2-(8-((2S,5R)-2,5-dimethyl-4-(1-(3-methylquinoxalin-6-yl)ethyl)piperazin-1-yl)-7-fluoro-5-methyl-6-oxo-5,6-dihydroimidazo[1,2-b]pyridazin-2-yl)acetonitrile]",95,10800
"CC[C@H]1CN(C(C)c2ccc3nc(CC4CC4)sc3n2)[C@H](CC)CN1c1cc(=O)n(C)n2cc(CC#N)nc12 (single isomer, unassigned) [Compound A110a]",1170,1070
"CC#CCc1cn2c(n1)c(N1C[C@@H](CC)N(C(C)c3ccc4nc(C)sc4n3)C[C@@H]1CC)cc(=O)n2C (single isomer, unassigned) [Compound A115b]",49,2.7
"CC[C@@H]1CN(c2c(C#N)c(=O)n(C)n3cc(CC#N)nc23)[C@@H](C)CN1C(C)c1ccc2nc(C)sc2n1 (single isomer, unassigned) [Compound A113a]",118,185
"CCC(c1ccc2nc(C)sc2n1)N1C[C@H](CC)N(c2cc(=O)n(C)n3cc(CC#N)nc23)C[C@H]1C (single isomer, unassigned) [Compound A98a]",2940,712
"CCC(c1ccc(C2CC2)nc1)N1C[C@H](CC)N(c2cc(=O)n(C)n3cc(CC#N)nc23)C[C@H]1CC (single isomer, unassigned) [Compound A89a]",73,171
"CC[C@H]1CN(C(CCOC)c2ccc3nc(C)sc3c2)[C@H](CC)CN1c1cc(=O)n(C)n2cc(CC#N)nc12 (single isomer, unassigned) [Compound A102b]",623,735
"CC[C@@H]1CN(c2cc(=O)n(C)n3cc(CC#N)nc23)[C@@H](C)CN1C(C)c1ccc(C(F)(F)F)cc1F (single isomer, unassigned) [Compound A17b]",4720,823
"CC[C@H]1CN(C(C)c2ccc(OC(C)C)nc2)[C@H](CC)CN1c1cc(=O)n(C)n2cc(CC#N)nc12 (single isomer, unassigned) [Compound A45b]",1060,835
"CC[C@H]1CN(C(C)c2ccc(OC)cn2)[C@H](CC)CN1c1cc(=O)n(C)n2cc(CC#N)nc12 (stereo partly drawn) [Compound A48, 2-(8-((2S,5R)-2,5-diethyl-4-(1-(5-methoxypyridin-2-yl)ethyl)piperazin-1-yl)-5-methyl-6-oxo-5,6-dihydroimidazo[1,2-b]pyridazin-2-yl)acetonitrile]",445,30
"CC[C@H]1CN(C(C)c2cc3scnc3cc2F)[C@H](CC)CN1c1cc(=O)n(C)n2cc(CC#N)nc12 (single isomer, unassigned) [Compound A59a]",26,54
"CC[C@H]1CN(C(C)c2ccc3cc(F)sc3n2)[C@H](CC)CN1c1cc(=O)n(C)n2cc(CC#N)nc12 (single isomer, unassigned) [Compound A105b]",48,3.3
"CC#CCc1cn2c(n1)c(N1C[C@@H](CC)N(C(C)c3ccc4nc(C)sc4c3)C[C@@H]1C)cc(=O)n2C (stereo partly drawn) [Compound A69, 2-(but-2-yn-1-yl)-8-((2S,5R)-5-ethyl-2-methyl-4-(1-(2-methylbenzo[d]thiazol-6-yl)ethyl)piperazin-1-yl)-5-methylimidazo[1,2-b]pyridazin-6(5H)-one]",1440,263
"CC[C@@H]1CN(c2cc(=O)n(C)n3cc(C=NOC)nc23)[C@@H](C)CN1C(C)c1ccc2nccnc2c1 (single isomer, unassigned) [Compound A9a]",3150,739
"CC[C@H]1CN(C(C)c2ccc3scnc3c2F)[C@H](CC)CN1c1cc(=O)n(C)n2cc(CC#N)nc12 (single isomer, unassigned) [Compound A66a]",22,105
"CC[C@H]1CN(C(C)c2ccc(C(C)(F)F)nc2)[C@H](CC)CN1c1cc(=O)n(C)n2cc(CC#N)nc12 (single isomer, unassigned) [Compound A90a]",25,121
"CC#CCc1cn2c(n1)c(N1C[C@@H](CC)N(C(C)c3ccc4ncsc4c3F)C[C@@H]1CC)cc(=O)n2C (single isomer, unassigned) [Compound A117b]",2000,535
"CC[C@H]1CN(C(C)c2ccc(C(F)(F)F)cc2)[C@H](CC)CN1c1cc(=O)n(C)n2cc(CC#N)nc12 (single isomer, unassigned) [Compound A91b]",1430,319
"CC[C@H]1CN(C(C)c2ccc3nccnc3c2)[C@H](CC)CN1c1cc(=O)n(C)n2cc(CC#N)nc12 (single isomer, unassigned) [Compound A14b]",358,1420
"CCC(c1ccc2nc(C)sc2n1)N1C[C@H](CC)N(c2cc(=O)n(C)n3cc(CC#N)nc23)C[C@H]1C (single isomer, unassigned) [Compound A98b]",45,39
"CC[C@H]1CN(C(C)c2ccc3ncsc3c2)[C@H](CC)CN1c1cc(=O)n(C)n2cc(CC#N)nc12 (stereo partly drawn) [Compound A53, 2-(8-((2S,5R)-4-(1-(benzo[d]thiazol-6-yl)ethyl)-2,5-diethylpiperazin-1-yl)-5-methyl-6-oxo-5,6-dihydroimidazo[1,2-b]pyridazin-2-yl)acetonitrile]",6.5,24
"CC(c1ccc2ncc(Cl)nc2c1)N1C[C@H](C)N(c2cc(=O)n(C)n3cc(CC#N)nc23)C[C@H]1C (stereo partly drawn) [Compound A21, 2-(8-((2S,5R)-4-(1-(3-chloroquinoxalin-6-yl)ethyl)-2,5-dimethylpiperazin-1-yl)-5-methyl-6-oxo-5,6-dihydroimidazo[1,2-b]pyridazin-2-yl)acetonitrile]",27,2710
"CC[C@H]1CN(C(C)c2ccc3nc(C)sc3c2)[C@H](CC)CN1c1c(C#N)c(=O)n(C)n2cc(CC#N)nc12 (stereo partly drawn) [Compound A111, 2-(cyanomethyl)-8-((2S,5R)-2,5-diethyl-4-(1-(2-methylbenzo[d]thiazol-6-yl)ethyl)piperazin-1-yl)-5-methyl-6-oxo-5,6-dihydroimidazo[1,2-b]pyridazine-7-carbonitrile]",132,575
"CC[C@H]1CN(C(C)c2ccc3nc(C)sc3c2)[C@H](CC)CN1c1cc(=O)n(C)n2cc(CC#N)nc12 (single isomer, unassigned) [Compound A56b]",638,659
"CC[C@H]1CN(C(C)c2ccc3nc(C)sc3n2)[C@H](CC)CN1c1c(C#N)c(=O)n(C)n2cc(CC#N)nc12 (single isomer, unassigned) [Compound A112b]",118,60
